Measurements: patent US20260256925A1, “INDAZOLE DERIVATIVES AS ESTROGEN RECEPTOR DEGRADERS” (REGENTS OF THE UNIVERSITY OF MICHIGAN, priority 2022, published 2026)

What was measured:
[1] = Cell growth assay, WST-8 (compounds B1-B126); type: cell-based; conditions: 96 h; T47D cell line, WST-8, 4 days; read-out: Cell growth inhibition in T47D cell line IC50
In short: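 Cells seeded at 1500/well overnight, treated one day later with compound doses for 4 days, then 10% WST-8 added for 2.5 h at 37° C in CO2. Absorbance at 450 nm, expressed relative to vehicle control over three independent repeats.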

ER = target: T1, ER (Homo sapiens, UniProt P03372); experiment: In-cell western blot analysis, relative ER percentage (compounds B1-B126); type: cell-based; conditions: ER degradation, 16 hours, read-out: ICW DC50
T1 construct: endogenous in cells; probably T47D or MCF-7
T1 sequence (P03372 1-595): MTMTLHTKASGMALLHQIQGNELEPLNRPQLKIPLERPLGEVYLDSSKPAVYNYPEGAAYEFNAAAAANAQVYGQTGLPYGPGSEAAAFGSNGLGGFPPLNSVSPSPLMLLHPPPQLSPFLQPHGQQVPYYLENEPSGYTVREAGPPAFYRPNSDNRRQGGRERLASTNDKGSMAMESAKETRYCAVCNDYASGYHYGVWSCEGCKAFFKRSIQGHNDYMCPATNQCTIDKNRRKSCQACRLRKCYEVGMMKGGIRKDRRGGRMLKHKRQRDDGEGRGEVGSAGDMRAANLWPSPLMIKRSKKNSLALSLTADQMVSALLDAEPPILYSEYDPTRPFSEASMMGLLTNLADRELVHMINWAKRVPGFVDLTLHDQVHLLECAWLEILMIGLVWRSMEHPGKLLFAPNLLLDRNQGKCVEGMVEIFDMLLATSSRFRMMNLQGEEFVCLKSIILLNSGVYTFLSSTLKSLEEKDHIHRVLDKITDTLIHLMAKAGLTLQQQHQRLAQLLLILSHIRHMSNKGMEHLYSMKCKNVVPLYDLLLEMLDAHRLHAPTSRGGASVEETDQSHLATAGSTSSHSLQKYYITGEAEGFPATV
In short: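 Cells seeded at 40,000 or 10,000 per well overnight were treated with compound (final 0.5% DMSO) for 16 hours, then fixed with formaldehyde. ER was detected with primary antibodies and anti-rabbit-680/anti-mouse-800 secondaries on a CLX reader. Signal is expressed relative to untreated and DMSO wells set as 100%.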

SMILES	IC50 [1] [µM]	DC50 (ER) [µM]
C[C@@H]1Cc2c(ccc3[nH]ncc23)[C@@H](c2ccc(N3CCC4(CC3)CC(CN3CCN5c6ccc7c(c6OC[C@H]5C3)CN(C3CCC(=O)NC3=O)C7=O)C4)cn2)N1CC(F)(F)F (stereo partly drawn) [Compound B106, 3-((R)-7-((7-(6-((6S,8R)-8-methyl-7-(2,2,2-trifluoroethyl)-6,7,8,9-tetrahydro-3H-pyrazolo[4,3-f]isoquinolin-6-yl)pyridin-3-yl)-7-azaspiro[3.5]nonan-2-yl)mcthyl)-1-oxo-1,3,5,5a,6,7,8,9-octahydro-2H-pyrazino[1′,2′:4,5][1,4]oxazino[2,3-e]isoindol-2-yl)piperidine-2,6-dione]	< 0.001	< 0.01
COc1cc(N2CC3(CCC(CN4CCN5c6ccc7c(c6OC[C@H]5C4)CN(C4CCC(=O)NC4=O)C7=O)CC3)C2)ccc1[C@@H]1c2ccc3[nH]ncc3c2C[C@@H](C)N1CC(F)F (stereo partly drawn) [Compound B84, 3-((R)-7-((2-(4-((6S,8R)-7-(2,2-difluoroethyl)-8-methyl-6,7,8,9-tetrahydro-3H-pyrazolo[4,3-f]isoquinolin-6-yl)-3-methoxyphenyl)-2-azaspiro[3.5]nonan-7-yl)methyl)-1-oxo-1,3,5,5a,6,7,8,9-octahydro-2H-pyrazino[1′,2′:4,5][1,4]oxazino[2,3-e]isoindol-2-yl)piperidine-2,6-dione]	> 0.01	> 0.1
C[C@H]1Cc2c(ccc3[nH]ncc23)[C@H](c2ccc(NC3CN(C(=O)CN4CCN5c6cc7c(cc6OC[C@@H]5C4)C(=O)N(C4CCC(=O)NC4=O)C7)C3)cn2)N1CC(F)(F)F (stereo partly drawn) [Compound B35, 3-((S)-3-(2-(3-((6-((6R,8S)-8-methyl-7-(2,2,2-trifluoroethyl)-6,7,8,9-tetrahydro-3H-pyrazolo[4,3-f]isoquinolin-6-yl)pyridin-3-yl)amino)azetidin-1-yl)-2-oxoethyl)-8-oxo-1,2,3,4,4a,5,8,10-octahydro-9H-pyrazino[1′,2′:4,5][1,4]oxazino[2,3-f]isoindol-9-yl)piperidine-2,6-dione]	> 0.01	0.01 to 0.1
C[C@@H]1Cc2c(ccc3[nH]ncc23)[C@@H](c2c(F)cc(N3CCC(CN4CC(N5CCN6c7cc8c(cc7OC[C@@H]6C5)C(=O)N(C5CCC(=O)NC5=O)C8)C4)CC3)cc2F)N1CC(F)F (stereo partly drawn) [Compound B46, 3-((S)-3-(1-((1-(4-((6S,8R)-7-(2,2-difluoroethyl)-8-methyl-6,7,8,9-tetrahydro-3H-pyrazolo[4,3-f]isoquinolin-6-yl)-3,5-difluorophenyl)piperidin-4-yl)methyl)azetidin-3-yl)-8-oxo-1,2,3,4,4a,5,8,10-octahydro-9H-pyrazino[1′,2′:4,5][1,4]oxazino[2,3-f]isoindol-9-yl)piperidine-2,6-dione]	< 0.001	< 0.01
C[C@@H]1Cc2c(ccc3[nH]ncc23)[C@@H](c2ccc(N3CCC4(CC3)CC(CN3CCN5c6cc7c(cc6OC[C@@H]5C3)C(=O)N(C3CCC(=O)NC3=O)C7)C4)cn2)N1CC(F)(F)F (stereo partly drawn) [Compound B77, 3-((S)-3-((7-(6-((6S,8R)-8-methyl-7-(2,2,2-trifluoroethyl)-6,7,8,9-tetrahydro-3H-pyrazolo[4,3-f]isoquinolin-6-yl)pyridin-3-yl)-7-azaspiro[3.5]nonan-2-yl)methyl)-8-oxo-1,2,3,4,4a,5,8,10-octahydro-9H-pyrazino[1′,2′:4,5][1,4]oxazino[2,3-f]isoindol-9-yl)piperidine-2,6-dione]	0.001 to 0.01	0.01 to 0.1
C[C@@H]1Cc2c(ccc3[nH]ncc23)[C@@H](c2c(F)cc(C3CCN(C(=O)CN4CCN5c6cc7c(cc6OC[C@@H]5C4)C(=O)N(C4CCC(=O)NC4=O)C7)CC3)cc2F)N1CC(F)F (stereo partly drawn) [Compound B28, 3-((S)-3-(2-(4-(4-((6S,8R)-7-(2,2-difluoroethyl)-8-methyl-6,7,8,9-tetrahydro-3H-pyrazolo[4,3-f]isoquinolin-6-yl)-3,5-difluorophenyl)piperidin-1-yl)-2-oxoethyl)-8-oxo-1,2,3,4,4a,5,8,10-octahydro-9H-pyrazino[1′,2′:4,5][1,4]oxazino[2,3-f]isoindol-9-yl)piperidine-2,6-dione]	< 0.001	0.01 to 0.1
C[C@@H]1Cc2c(ccc3[nH]ncc23)[C@@H](c2ccc(N3CC4(CCC(CN5CCN6c7c(ccc8c7CN(C7CCC(=O)NC7=O)C8=O)OC[C@@H]6C5)CC4)C3)cn2)N1CC(F)(F)F (stereo partly drawn) [Compound B110, 3-((S)-9-((2-(6-((6S,8R)-8-methyl-7-(2,2,2-trifluoroethyl)-6,7,8,9-tetrahydro-3H-pyrazolo[4,3-f]isoquinolin-6-yl)pyridin-3-yl)-2-azaspiro[3.5]nonan-7-yl)methyl)-3-oxo-1,3,7,7a,8,9,10,11-octahydro-2H-pyrazino[1′,2′:4,5][1,4]oxazino[3,2-e]isoindol-2-yl)piperidine-2,6-dione]	0.001 to 0.01	> 0.1
C[C@@H]1Cc2c(ccc3[nH]ncc23)[C@@H](c2cnc(N3CCC4(CCC(CN5CCC6(CC5)COc5c6ccc6c5CN([C@H]5CCC(=O)NC5=O)C6=O)CO4)CC3)nc2)N1CC(F)(F)F (stereo partly drawn) [Compound B126, (3S)-3-(1′-((9-(5-((6S,8R)-8-methyl-7-(2,2,2-trifluoroethyl)-6,7,8,9-tetrahydro-3H-pyrazolo[4,3-f]isoquinolin-6-yl)pyrimidin-2-yl)-1-oxa-9-azaspiro[5.5]undecan-3-yl)methyl)-6-oxo-6,8-dihydro-2H,7H-spiro[furo [2,3-e]isoindole-3,4′-piperidin]-7-yl)piperidine-2,6-dione]	< 0.001	< 0.01
C[C@@H]1Cc2c(ccc3[nH]ncc23)[C@@H](c2c(F)cc(NC3CC4(C3)CN(CC(=O)N3Cc5cc6c(cc5C3)C(=O)N(C3CCC(=O)NC3=O)C6=O)C4)cc2F)N1CC(F)F (stereo partly drawn) [Compound B45, 6-(2-(6-((4-((6S,8R)-7-(2,2-difluoroethyl)-8-methyl-6,7,8,9-tetrahydro-3H-pyrazolo[4,3-f]isoquinolin-6-yl)-3,5-difluorophenyl)amino)-2-azaspiro[3.3]heptan-2-yl)acetyl)-2-(2,6-dioxopiperidin-3-yl)-6,7-dihydropyrrolo[3,4-f]isoindole-1,3(2H,5H)-dione]	0.001 to 0.01	0.01 to 0.1
C[C@@H]1Cc2c(ccc3[nH]ncc23)[C@@H](c2ccc(N3CC4(CCC(CN5CCN6c7ccc8c(c7OC[C@@H]6C5)CN(C5CCC(=O)NC5=O)C8=O)CC4)C3)cn2)N1CC(F)F (stereo partly drawn) [Compound B87, 3-((S)-7-((2-(6-((6S,8R)-7-(2,2-difluoroethyl)-8-methyl-6,7,8,9-tetrahydro-3H-pyrazolo[4,3-f]isoquinolin-6-yl)pyridin-3-yl)-2-azaspiro[3.5]nonan-7-yl)methyl)-1-oxo-1,3,5,5a,6,7,8,9-octahydro-2H-pyrazino[1′,2′:4,5][1,4]oxazino[2,3-e]isoindol-2-yl)piperidine-2,6-dione]	0.001 to 0.01	< 0.01
C[C@@H]1Cc2c(ccc3[nH]ncc23)[C@@H](c2c(F)cc(NC3CN(C(=O)CN4CCN5c6ccc7c(c6OC[C@H]5C4)CN(C4CCC(=O)NC4=O)C7=O)C3)cc2F)N1CC(F)F (stereo partly drawn) [Compound B100, 3-((R)-7-(2-(3-((4-((6S,8R)-7-(2,2-difluoroethyl)-8-methyl-6,7,8,9-tetrahydro-3H-pyrazolo[4,3-f]isoquinolin-6-yl)-3,5-difluorophenyl)amino)azetidin-1-yl)-2-oxoethyl)-1-oxo-1,3,5,5a,6,7,8,9-octahydro-2H-pyrazino[1′,2′:4,5][1,4]oxazino[2,3-e]isoindol-2-yl)piperidine-2,6-dione]	0.001 to 0.01	0.01 to 0.1
C[C@@H]1Cc2c(ccc3[nH]ncc23)[C@@H](c2c(F)cc(N3CCC(CN4CCN5c6ccc7c(c6N(C)C[C@@H]5C4)CN(C4CCC(=O)NC4=O)C7=O)CC3)cc2F)N1CC(F)F (stereo partly drawn) [Compound B30, 3-((S)-7-((1-(4-((6S,8R)-7-(2,2-difluoroethyl)-8-methyl-6,7,8,9-tetrahydro-3H-pyrazolo[4,3-f]isoquinolin-6-yl)-3,5-difluorophenyl)piperidin-4-yl)methyl)-4-methyl-1-oxo-3,4,5,5a,6,7,8,9-octahydropyrazino[1,2-a]pyrrolo[3,4-f]quinoxalin-2(1H)-yl)piperidine-2,6-dione]	0.001 to 0.01	< 0.01
C[C@@H]1Cc2c(ccc3[nH]ncc23)[C@@H](c2c(F)cc(N3CCC(CN4CCC5(CC4)COc4c5ccc5c4CN(C4CCC(=O)NC4=O)C5=O)CC3)cc2F)N1CC(F)F (stereo partly drawn) [Compound B114, 3-(1′-((1-(4-((6S,8R)-7-(2,2-difluoroethyl)-8-methyl-6,7,8,9-tetrahydro-3H-pyrazolo[4,3-f]isoquinolin-6-yl)-3,5-difluorophenyl)piperidin-4-yl)methyl)-6-oxo-6,8-dihydro-2H,7H-spiro[furo[2,3-e]isoindole-3,4′-piperidin]-7-yl)piperidine-2,6-dione]	< 0.001	> 0.1
